This note sets out measurements from patent US9150553B2, “Carboxamide compounds and their use as calpain inhibitors” (AbbVie Deutschland GmbH & Co. KG, priority 2007, dated 2015).

The data set is described as follows: In vivo pharmacokinetic profile after oral dosing in rats (plasma, LC-MS). Set-up: species or system Sprague-Dawley rats. Conditions: plasma prodrug I-2 after oral 10 mg/kg of prodrug example 2, male rats, lines = rat 1, 2, 3 and mean. How it is done:
The compound described in example 2 was prepared as a solution (20% EtOH, 40% PEG400, qc. Ampuwa) at a concentration appropriate for a 10 mg/kg (5 mL/kg) oral dose.
Three male Sprague-Dawley rats (200-300 g; Elevage Janvier, France) were used in this study. Due to size, each rat was housed in Macrolon Type 111 cages under conventional barrier conditions. The animals were fasted overnight prior to dosing and throughout the duration of the study but were permitted water ad libitum and were permitted food typically six hours postdosing. Control animals were placed under deep isoflurane anesthia and euthanized by bleeding (cardiac puncture) and their tissues removed and used as blank standards during sample analysis.
The group contained three rats. The group of rats received a 10 mg/kg (5 mL/kg) dose orally by gavage. At the conclusion of the study, rats were euthanized by bleeding (cardiac puncture) under deep isoflurane anesthesia.
Potassium-EDTA blood samples (approx. 200-300 μl) were withdrawn from the tail vein of each animal by butterfly catheter 0.25, 0.5, 1, 1.5, 2, 3, 4, 6, 8 and 24 hours after drug administration. Upon collection, the samples were promptly placed in an ice bath, and within 2 hours after sample collection they were centrifuged at about 4° C. Upon completion of the study, animals were put under deep anesthesia using isoflurane and euthanized by bleeding (cardiac puncture). The resulting plasma samples were placed in clean PP-tubes and stored in a freezer until analysis.
The plasma samples were assayed for the compound I and corresponding drug II using appropriate liquid chromatography mass spectrometry procedures.
Peak plasma concentrations (Cmax) and the time to peak plasma concentration (Tmax) were read directly from the plasma concentration data for each rat. The drug and the prodrug plasma concentration data were submitted to multi-exponential curve fitting using WinNonlin. The area under the plasma concentration-time curve from 0 to t hours (time of the last measurable plasma concentration) after dosing (AUC0-t) was calculated using the linear trapezoidal rule for the plasma concentration-time profiles. The residual area extrapolated to infinity, determined as the final measured plasma concentration (Ct) divided by the terminal elimination rate constant (B), was added to AUC0-t to produce the total area under the curve (AUC0-∞). The apparent total plasma clearance (CLp) was calculated by dividing the administered dose by the AUC0-∞. The initial volume of distribution (Vc) was calculated as the dose divided by the extrapolated concentration at time=0 (C0). […] The bioavailability was calculated as the dose-normalized AUC0∞, from the oral dose divided by the corresponding value derived from an intravenous dose.

The mark [1] stands for this setting: male, Sprague-Dawley, rat, plasma, po, 10 mg/kg.

The structures appear in SMILES notation. Values joined by “and” are separate entries in the source; they are usually repeats but may differ in a detail not shown here. Equal entries are not always repeated.

With `NC(=O)C1(C(Cc2ccccc2)NC(=O)c2cccnc2-n2ccc(-c3cccc(C(F)(F)F)c3)n2)OCCO1` (stereo not shown) [Compound I-2, N-{1-[2-(Aminocarbonyl)-1,3-dioxolan-2-yl]-2-phenylethyl}-2-{3-[3-(trifluoromethyl)phenyl]-1H-pyrazol-1-yl}nicotinamide], the “prodrug AUC” value was 1315 ng·h/mL and 1485 ng·h/mL and 2297 ng·h/mL; the “prodrug Tmax” value is 30 min. In addition, under setting [1], the exposure (AUC) (usually the area under the concentration-time curve, a measure of exposure) turned out to be 1700 ng·h/mL and the Tmax (as a rule, the time from dosing to the highest level) was found to be 18 min.
